The values below come from patent US20220304305A1, “HIGHLY EFFECTIVE FORMULATIONS ON THE BASIS OF 2-[(2,4-DICHLORPHENYL)-METHYL]-4,4'-DIMETHYL-3-ISOXAZOLIDINONES AND PREEMERGENCE HERBICIDES” (Bayer Aktiengesellschaft, priority 2019, published 2022).

The conditions of data set [1]: list of substances and abbreviations used; cited from earlier work.
Data set [2] concerns gramineous weeds in winter cereals. Briefly: Greenhouse trials, activity against gramineous weeds (summary in words). It counts as in vivo. To be noted: with both adjuvants from as low as 250 g/ha. The protocol: In the standard implementation of the test, seeds of various broad-leaved weed and weed grass biotypes (origins) were sown in an 8-13 cm diameter pot filled with natural soil of a standard field soil (loamy silt; non-sterile) and covered with a covering soil layer of about 1 cm. The pots were then cultivated in a greenhouse (light for 12-16 h, temperature 20-22° C. by day, 15-18° C. by night) until the time of application. The pots were treated on a laboratory track sprayer with spray liquors comprising the mixtures/compositions of the invention, mixtures of the prior art or the components applied individually. Application of the active ingredients or active ingredient combinations formulated as WG, WP, EC or otherwise was effected at the appropriate growth stages of the plants. The amount of water used for spray application was 100-600 l/ha. After the treatment, the plants were returned to the greenhouses.
About 3 weeks after the application, the soil action or/and foliar action was assessed visually according to a scale of 0-100% in comparison to an untreated comparative group: 0%=no noticeable effect compared to the untreated comparative group; 100%=full effect compared to the untreated comparative group. […]

On to `CC(C)N(C(=O)COc1nnc(C(F)(F)F)s1)c1ccc(F)cc1` [flufenacet, 4′-fluoro-N-isopropyl-2-(5-trifluoromethyl-1,3,4-thiadiazol-2-yloxy)acetanilide], for which the “log P” value in data set [1] is recorded as “(Bayer AG), abbreviated hereinafter to FFA, log P = 3.2”. As to `CC1(C)CON(Cc2ccc(Cl)cc2Cl)C1=O` [DCPMI, 2-[(2,4-dichlorophenyl)methyl]-4,4′-dimethyl-3-isoxazolidinone], in data set [2], the improvement entry is reported as “significant improvement”. For the same compound, in data set [1], the “log P” value was “abbreviated hereinafter to DCPMI), log P = 3.39”.
